Results from BindingDB's records for patent WO2022098807 (Merck Sharp &Amp, 2022).

Biological target: Mitogen-activated protein kinase kinase kinase kinase 1 (Homo sapiens, UniProt Q92918)
Assay: HPK1-SLP76 TR-FRET ASSAY

Sequence of Mitogen-activated protein kinase kinase kinase kinase 1 (Q92918 whole entry): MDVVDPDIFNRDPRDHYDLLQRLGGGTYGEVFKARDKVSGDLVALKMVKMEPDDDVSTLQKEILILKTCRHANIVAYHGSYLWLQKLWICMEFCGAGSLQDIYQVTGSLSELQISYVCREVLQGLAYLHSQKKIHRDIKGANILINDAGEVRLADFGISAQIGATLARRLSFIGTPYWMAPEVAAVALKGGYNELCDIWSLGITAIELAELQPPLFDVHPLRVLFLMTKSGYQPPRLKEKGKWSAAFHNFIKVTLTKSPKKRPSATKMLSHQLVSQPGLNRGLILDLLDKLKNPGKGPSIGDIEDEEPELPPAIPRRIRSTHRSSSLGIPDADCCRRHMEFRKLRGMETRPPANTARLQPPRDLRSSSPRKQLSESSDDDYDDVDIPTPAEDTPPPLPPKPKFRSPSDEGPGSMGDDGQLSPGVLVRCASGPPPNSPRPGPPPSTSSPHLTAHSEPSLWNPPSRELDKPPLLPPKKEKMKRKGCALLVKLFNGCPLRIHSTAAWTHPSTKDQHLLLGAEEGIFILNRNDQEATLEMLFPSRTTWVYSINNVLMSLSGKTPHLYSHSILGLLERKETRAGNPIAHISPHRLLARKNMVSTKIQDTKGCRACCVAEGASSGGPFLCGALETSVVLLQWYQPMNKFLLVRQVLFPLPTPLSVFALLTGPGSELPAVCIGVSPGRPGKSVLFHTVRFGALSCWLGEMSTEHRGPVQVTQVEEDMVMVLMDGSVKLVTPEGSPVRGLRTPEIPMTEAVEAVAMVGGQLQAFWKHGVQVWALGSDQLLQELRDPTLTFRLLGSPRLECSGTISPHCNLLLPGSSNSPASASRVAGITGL

| Compound | IC50 [nM] |
| --- | --- |
| Cc1c(-c2cc3nc(Nc4cnn(C)c4C)ncc3c(N)c2F)cnc2c1NCCO2 [WO2022098807, Example 2-30] | 0.05 |
| Cc1c(-c2cc3nc(Nc4cnn(C5CCNCC5)c4)ncc3c(N)c2F)cnc2c1NCCO2 [WO2022098807, Example 2-11] | 0.07 |
| Cc1c(-c2cc3nc(Nc4cnn(C5(C)CC5)c4)ncc3c(N)c2F)cnc2c1NCCO2 [WO2022098807, Example 2-8] | 0.09 |
| Cc1c(-c2c(F)c(N)c3cnc(Nc4cnn(C5CCN(C)CC5)c4)nc3c2Cl)cnc2c1NCCO2 [WO2022098807, Example 2-44] | 0.05 |
| Cc1c(-c2cc3nc(Nc4cnn(C56CC(C(C)(C)O)(C5)C6)c4)ncc3c(N)c2F)cnc2c1NCCO2 [WO2022098807, Example 2-46] | 0.05 |
| Cc1c(-c2cc3nc(Nc4cnn(CC(F)F)c4)ncc3c(N)c2F)cnc2c1NCCO2 [WO2022098807, Example 2-32] | 0.05 |
| Cc1c(-c2ccc3cnc(Nc4cc5n(n4)CCN(C(C)(C)O)C(=O)C5)nc3c2)cnc2c1NCCO2 [WO2022098807, Example 1-8] | 0.67 |
| Cc1c(-c2c(F)c(N)c3cnc(Nc4cnn([C@@H]5CCN(C)C5)c4)nc3c2Cl)cnc2c1NCCO2 [WO2022098807, Example 2-48] | 0.17 |
| CCn1cc(Nc2ncc3c(N)c(F)c(-c4cnc5c(c4C)NCCO5)cc3n2)cn1 [WO2022098807, Example 2-22] | 0.08 |
| Cc1c(-c2c(F)c(N)c3cnc(Nc4cnn(C5CC5)c4C)nc3c2Cl)cnc2c1NCCO2 [WO2022098807, Example 2-45] | 0.18 |
| Cc1nn(C)cc1Nc1ncc2c(N)c(F)c(-c3cnc4c(c3C)NCCO4)cc2n1 [WO2022098807, Example 2-34] | 0.06 |
| Cc1c(-c2ccc3cnc(Nc4cnn(C5CC6(C5)CC(C5(C)COC5)C6)c4)nc3c2)cnc2c1NCCO2 (stereo not given) [WO2022098807, Example 1-2] | 0.22 |
| Cc1c(-c2cc3nc(Nc4cc5n(n4)CCN(C(C)C)C(=O)C5)ncc3c(N)c2F)cnc2c1NCCO2 [WO2022098807, Example 2-20] | 0.06 |

More lines, in order of falling IC50, values ahead:

| IC50 [nM] | Compound |
| --- | --- |
| 0.35 | Cc1c(-c2cc3nc(Nc4cnn([C@H]5CCN(C)C5=O)c4)ncc3c(N)c2F)cnc2c1NCCO2 [WO2022098807, Example 2-21] |
| 0.18 | Cc1c(-c2c(F)c(N)c3cnc(Nc4cnn([C@H]5CCN(C)C5)c4)nc3c2Cl)cnc2c1NCCO2 [WO2022098807, Example 2-47] |
| 0.15 | Cc1c(-c2cc3nc(Nc4cnn([C@@H]5CCN(C)C5=O)c4)ncc3c(N)c2F)cnc2c1NCCO2 [WO2022098807, Example 2-19] |
| 0.09 | CNC(=O)C12CC(n3cc(Nc4ncc5c(N)c(F)c(-c6cnc7c(c6C)NCCO7)cc5n4)cn3)(C1)C2 [WO2022098807, Example 2-28] |
| 0.07 | Cc1cnsc1Nc1ncc2c(N)c(F)c(-c3cnc4c(c3C)NCCO4)cc2n1 [WO2022098807, Example 2-37] |
| 0.05 | Cc1c(-c2cc3nc(Nc4cnn5c4CCC5)ncc3c(N)c2F)cnc2c1NCCO2 [WO2022098807, Example 2-35] |
| 0.05 | Cc1c(-c2cc3nc(Nc4cnn(C5COC5)c4)ncc3c(N)c2F)cnc2c1NCCO2 [WO2022098807, Example 2-39] |
